# Square brackets hold non-standard residues; d marks the D form. Peptide text beside a SMILES is read from it. Tic = O=C(O)[C@@H]1Cc2ccccc2CN1
# Molecular target: Prothrombin (Homo sapiens, UniProt P00734)
# Assay: In vitro inhibitory activity against human Prothrombin
row,Compound,IC50
1,CC[C@@H](C(=O)N1CCC[C@H]1C(=O)N[C@H](C=O)CCCNC(=N)N)c1ccccc1,130 nM
2,N=C(N)NCCC[C@@H](C=O)NC(=O)[C@@H]1CCCN1C(=O)[C@H]1NCCc2ccccc21,19 nM
3,CO[C@@H](C(=O)N1CCC[C@H]1C(=O)N[C@H](C=O)CCCN=C(N)N)c1ccccc1,250 nM
4,C[C@@H](C(=O)N1CCC[C@H]1C(=O)N[C@H](C=O)CCCNC(=N)N)c1ccccc1,94 nM
5,C[C@H](C(=O)N1CCC[C@H]1C(=O)N[C@H](C=O)CCCNC(=N)N)c1ccccc1,5100 nM
6,N=C(N)NCCC[C@@H](C=O)NC(=O)[C@@H]1CCCN1C(=O)[C@@H]1Cc2ccccc2CN1 (H-[Tic]-Pro-Arg-aldehyde),25 nM

# Results, then the molecule that gave them:
row,IC50,Compound
1,18 nM,CC(C)(C)OC(=O)N[C@@H](C(=O)N1CCC[C@H]1C(=O)N[C@H](C=O)CCCNC(=N)N)c1ccc2ccccc2c1
2,23 nM,CC(C)(C)OC(=O)N[C@@H](C(=O)N1CCC[C@H]1C(=O)N[C@H](C=O)CCCNC(=N)N)c1cccc2ccccc12
3,27 nM,CC(C)(C)OC(=O)N[C@@H](C(=O)N1CCC[C@H]1C(=O)N[C@H](C=O)CCCN=C(N)N)c1cccc(C(F)(F)F)c1
4,55 nM,CC(C)(C)OC(=O)NC(C(=O)N1CCC[C@H]1C(=O)N[C@H](C=O)CCCN=C(N)N)c1cccc2ccccc12 (stereo in doubt; 12)
5,85 nM,CC(C)(C)OC(=O)NC(C(=O)N1CCC[C@H]1C(=O)N[C@H](C=O)CCCN=C(N)N)c1cccc2ccccc12 (stereo in doubt; 13)
